# “Also recorded” adds a separate entry of the source. Marks after values point to notes of the source that are not given here.
# Assays:
# [1] = system: Alpha-glucosidase (EC 3.2.1.20); test: Alpha-Glucosidase Inhibition Assay; type: biochemical; conditions: for Alpha-glucosidase inhibitory activity, in words / alpha-Glucosidase inhibition (%): 0.1 mg/mL final concentration
# Protocol: Alpha-Glucosidase Inhibition Assay.
# The assay was performed according to the 126 Journal of Natural Products, 2008. Vol. 71. No. 1 Notes
# method described by Oki and co-workers, with slight modifications.^13 alpha-Glucosidase was purchased from Toyobo Co., Ltd. (Osaka. Japan). The enzyme solution was prepared by dissolving 0.6 U/mL of Alpha-glucosidase in 100 mM phosphate buffer (pH 7) containing 2 g/L bovine serum albumin and 0.2 g/L NaN3. p-Nitrophenyl-R-D-glucopyranoside (5 mM) in the same buffer solution (pH 7) was used as a substrate solution. The enzyme solution (50 μL) and the test compounds (10 μL), dissolved in DMSO to a final concentration of 0.1 mg/mL, were mixed in each well of the microliter 96-well culture plates and measured spectrophotometrically (absorbance 405 nm) at zero time, using a microplate reader (Bio-Rad model 550 microplate reader). The mixture was preincubated for 5 min at room temperature before the addition of substrate solution ([…]) and followed by a 5 min incubation at room temperature. The increase in absorbance from zero time was measured. The inhibitory activity was expressed as […] minus the relative absorbance difference (%) of test compounds to absorbance change of the control where the test solution was replaced by DMSO. 1-Deoxynojirimycin (Wako Pure Chemical Industries, Ltd.) 0.3 mM in DMSO was used as a positive control.
# [2] = system: A. aegypti 1st instar larvae; test: Larval mosquito toxicity, compound added to rearing water, 24 h; type: in vivo, Aedes aegypti; conditions: for Larval mosquitoes EC50 in ppm (95% CI), A. aegypti: larvae, 24 h after adding to rearing water
# Protocol: (§1) A,C) Concentration-toxicity relationships in 1st instar larvae 24 h after adding CINEX or indicated compound to the rearing water. B,D) Dose-toxicity relationships in adult females 24 h after applying CINEX or indicated compound to the thoracic cuticle. CDIAL=OSU-1.
# (§2) Each compound of cinnamodial (CDIAL), cinnafragrin A (CM18) and cinnamosmolide (CMOS) were isolated form the barks of the Madagascan plants Cinnamosma fragrans, Cinnamosma macrocarpa and Cinnamosma madagascariensis. Each was dissolved in 100% acetone and applied directly to the cuticle of adult female mosquitoes (Aedes aegypti, Anopheles gambiae, and Culex pipiens) or 3rd instar nymph soybean aphids (Aphis glycines). The bark extract and the isolated compounds was toxic to larval and adult female mosquitoes within 24 hr in a concentration/dose dependent manner (FIGS. 4 and 5). Among the isolated compounds.
# C. pipiens larvae = test: as above; type: in vivo, Culex pipiens; conditions: 24 h after adding to rearing water
# Protocol: (§3) The concentration/dose-toxicity relationships for Ae. aegypti from FIG. 4 are superimposed to facilitate comparisons.
# as §2
# A. gambiae larvae = test: as above; type: in vivo, Anopheles gambiae; conditions: 24 h after adding to rearing water
# Protocol: as §3, §2
# A. aegypti adult females = test: Adult female mosquito toxicity, applied to thoracic cuticle, 24 h; type: in vivo, Aedes aegypti; conditions: for Adult female mosquitoes ED50 in μg/mg mosquito (95% CI), A. aegypti: adult females, 24 h after applying to thoracic cuticle, in acetone
# Protocol: as §1, §2
# C. pipiens adult females = test: as above; type: in vivo, Culex pipiens; conditions: 24 h after applying to thoracic cuticle, in acetone
# Protocol: as §3, §2
# A. gambiae adult females = test: as above; type: in vivo, Anopheles gambiae; conditions: 24 h after applying to thoracic cuticle, in acetone
# Protocol: as §3, §2
# [3] = system: soybean aphid Aphis glycines; test: Soybean aphid toxicity, applied to cuticle of 3rd instar nymphs, 24 h; type: in vivo; conditions: for ED50 in aphids: 3rd instar nymphs, 24 h after application to cuticle
# Protocol: Dose-toxicity relationships in 3rd instar nymphs 24 h after adding CINEX or indicated compound to the thoracic cuticle. CDIAL=OSU-1.
# as §2
# [4] = system: adult female Aedes aegpti; test: Blood-feeding bioassay (mosquito repellency, membrane feeder); type: in vivo, Aedes aegypti; conditions: 20.8 μg/cm^2 on nylon fabric covering the blood source, 1 h
# Text: FIG. 8 is a graph showing repellent efficacy of CINEX and CDIAL (OSU-1) compared to DEET, an industry standard. Values are means±SEM; N=31, 9, 5, and 15 respectively for Control, DEET, CINEX, and CDIAL. Lower-case letters indicate statistical categorization of the means as determined by a one-way ANOVA with a Newman-Keuls posttest (P<0.05).
# We used a blood-feeding bioassay to test the efficacy of OSU-1 (CDIAL) and the C. fragrans bark extract (CINEX) to repel mosquitoes from feeding on a blood source. In brief, cages of 20 mosquitoes (adult female Aedes aegpti) were starved for 24 h before being allowed to feed on a membrane feeder (Hemotek) containing defibrinated rabbit blood. After 1 h, the mosquitoes were immobilized on ice and the number of individuals with blood in their abdomen was counted. The membrane feeder maintains the blood at a constant temperature of 37° C. (human body temperature) and is covered with a collagen membrane that mimics human skin. Mosquitoes pierce through the collagen membrane with their proboscis to obtain the blood. […] Lower-case letters indicate statistical categorization of the means as determined by a one-way ANOVA with a Newman-Keuls posttest (P<0.05).
# [5] = system: Alpha-glucosidase (EC 3.2.1.20); conditions: reported in references 2 and 3; cited from earlier work
Compound,alpha-Glucosidase inhibition (%) [1],"Larval mosquitoes EC50 in ppm (95% CI), A. aegypti [2]","Adult female mosquitoes ED50 in μg/mg mosquito (95% CI), A. aegypti (A. aegypti adult females)",ED50 in aphids [3],"Alpha-glucosidase inhibitory activity, in words [1]",further results
"OC[C@H]1NC[C@H](O)[C@@H](O)[C@@H]1O [1-deoxynojirimycin, reference compound]",–,–,–,–,–,"alpha-Glucosidase inhibition (%), positive control ([1]; 0.3 mM in DMSO, positive control): 100%"
"CC(=O)O[C@@H]1C=C(C=O)[C@@](O)(C=O)[C@@]2(C)CCCC(C)(C)C12 (stereo partly shown) [CDIAL, cinnamodial]",83.7%,21.6 ppm,0.09 μg/mg mosquito,0.38 μg/aphid,most potent activity,"Toxicity to larval mosquitoes, in words ([2]; within 24 hr, concentration dependent): most potent and efficacious; Larval mosquitoes EC50 in ppm (95% CI), C. pipiens (C. pipiens larvae): 13.3† ppm; Larval mosquitoes EC50 in ppm (95% CI), A. gambiae (A. gambiae larvae): 29.8 ppm; Toxicity to adult female mosquitoes, in words (A. aegypti adult females; within 24 hr, dose dependent): most potent and efficacious; Adult female mosquitoes ED50 in μg/mg mosquito (95% CI), C. pipiens (C. pipiens adult females): 0.17† μg/mg mosquito; Adult female mosquitoes ED50 in μg/mg mosquito (95% CI), A. gambiae (A. gambiae adult females): 0.05† μg/mg mosquito; Toxicity to aphids, in words ([3]; within 24 h of application): most potent; Percentage of mosquitoes feeding on a blood source, in words [4]: significantly reduced; Alpha-glucosidase inhibition, in words, from earlier papers [5]: strong inhibition"
"CC(=O)O[C@@H]1C=C(C2OC3OC(O)C4=C[C@@H](OC(C)=O)C5C(C)(C)CCC[C@]5(C)[C@]43O2)[C@@](O)(C=O)[C@@]2(C)CCCC(C)(C)C12 (stereo partly shown) [CM18, cinnafragrin A]",–,22.6 ppm,2.03* μg/mg mosquito,1.7 μg/aphid,–,–
"CC(=O)O[C@@H]1C=C2C(=O)OCC2(O)[C@@]2(C)CCCC(C)(C)C12 (stereo partly shown) [CMOS, cinnamosmolide]",20.0%,134.4* ppm,3.94* μg/mg mosquito,2.5 μg/aphid,–,–
"CC1(C)CCC[C@]2(C)[C@H](C=O)C(C=O)=CC[C@@H]12 [isopolygodial, reference compound]",–,–,–,–,–,"Alpha-glucosidase inhibition, in words, from earlier papers [5]: did not show any activity"

# Now from value to compound, other results behind:
alpha-Glucosidase inhibition (%) [1],Compound,"Larval mosquitoes EC50 in ppm (95% CI), A. aegypti [2]","Adult female mosquitoes ED50 in μg/mg mosquito (95% CI), A. aegypti (A. aegypti adult females)",ED50 in aphids [3],"Alpha-glucosidase inhibitory activity, in words [1]",further results
not active,"COC1OC(OC)C2(O)C1=CC(OC(C)=O)C1C(C)(C)CCCC12C (stereo not shown) [Compound 2, cinnamodial 11R,12-dimethyl acetal]",–,–,–,–,–
7.2%,"CC1(C)CCC[C@@]2(C)[C@H]1[C@H](O)C=C1C(=O)OC[C@]12O [Compound 3, pereniporin B]",–,–,–,–,–
46.2%,"CC(=O)O[C@@H]1[C@@H](O)C2=C(C(=O)OC2)[C@@]2(C)CCCC(C)(C)[C@H]12 [Compound 4, ugandensolide]",–,–,–,moderate effects; also recorded: moderate activity,–
2.1%,"CC1(C)CCC[C@]2(C)[C@@H](C=O)C(C=O)=CC[C@@H]12 [Compound 5, polygodial]",–,–,–,only slight activity; also recorded: did not show any activity,–
14.9%,cinnamadin [Compound 1],–,–,–,moderate effects,–
